The results in this text go back to patent US11117900B2 (Vertex Pharmaceuticals Incorporated, priority 2012, dated 2021).

The assay deals with HCT116 colorectal cancer cells. Kind of assay: Cisplatin sensitization assay (96 h MTS cell viability).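 Note: compound concentration needed to lower the IC50 of Cisplatin alone by a set fold.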 In kind it is cell-based. Conditions: Cisplatin sensitization value. In a few lines:
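HCT116 cells were dosed simultaneously with compound and cisplatin as a full matrix of 2-fold serial dilutions from 10 μM top final concentration. Incubation was 96 h at 37° C., 5% CO2, followed by 1 h with MTS reagent for the viability read-out. Sensitization values were binned into +++, ++ and + categories.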

For `Nc1nn2cc(Cl)cnc2c1C(=O)Nc1cnccc1N1CCN(C2COC2)CC1` [I-N-58, 2-amino-6-chloro-N-(4-(4-(oxetan-3-yl)piperazin-1-yl)pyridin-3-yl)pyrazolo[1,5-a]pyrimidine-3-carboxamide], the “Cisplatin Sensitization Assay” value is “++ (Compounds with a Cisplatin sensitization value >0.02 μM but <0.2 μM are marked with “++.”)”.
The value for `CC(C)N1CCCC1C(=O)N1CCN(c2c(F)cncc2NC(=O)c2c(N)nn3cc(F)cnc23)CC1` (centres unmarked) [I-N-205, 2-amino-6-fluoro-N-(5-fluoro-4-(4-(1-isopropylpyrrolidine-2-carbonyl)piperazin-1-yl)pyridin-3-yl)pyrazolo[1,5-a]pyrimidine-3-carboxamide] was “++ (Compounds with a Cisplatin sensitization value >0.02 μM but <0.2 μM are marked with “++.”)”.
The value for `Nc1nn2cc(F)cnc2c1C(=O)Nc1cnccc1N1CCN(C2COC2)CC1` [I-N-1, 2-amino-6-fluoro-N-(4-(4-(oxetan-3-yl)piperazin-1-yl)pyridin-3-yl)pyrazolo[1,5-a]pyrimidine-3-carboxamide] was “++ (Compounds with a Cisplatin sensitization value >0.02 μM but <0.2 μM are marked with “++.”)”; that for `Nc1nn2cc(F)cnc2c1C(=O)Nc1cnccc1C1CCOC1` (centres unmarked) [I-C-75, 2-amino-6-fluoro-N-(4-(tetrahydrofuran-3-yl)pyridin-3-yl)pyrazolo[1,5-a]pyrimidine-3-carboxamide] was “++ (Compounds with a Cisplatin sensitization value >0.02 μM but <0.2 μM are marked with “++.”)”; that for `CC(C)N1CCN(c2ccncc2NC(=O)c2c(N)nn3cc(F)cnc23)CC1` [I-N-4, 2-amino-6-fluoro-N-(4-(4-isopropylpiperazin-1-yl)pyridin-3-yl)pyrazolo[1,5-a]pyrimidine-3-carboxamide] was “+++ (Compounds with a Cisplatin sensitization value of <0.02 μM are marked with “+++.”)”.
`Nc1nn2cc(F)cnc2c1C(=O)Nc1cncc(F)c1N1CCC(C(=O)N2CCN3CCC2C3)CC1` (centres unmarked) [I-G-46, N-(4-(4-(1,4-diazabicyclo[3.2.1]octane-4-carbonyl)piperidin-1-yl)-5-fluoropyridin-3-yl)-2-amino-6-fluoropyrazolo[1,5-a]pyrimidine-3-carboxamide]: the “Cisplatin Sensitization Assay” value is on record as “+++ (Compounds with a Cisplatin sensitization value of <0.02 μM are marked with “+++.”)”.
For `COC(=O)N1CCN(c2c(F)cncc2NC(=O)c2c(N)nn3cc(F)cnc23)CC1` [I-N-261, methyl-4-(3-(2-amino-6-fluoropyrazolo[1,5-a]pyrimidine-3-carboxamido)-5-fluoropyridin-4-yl)piperazine-1-carboxylate] the value was “+++ (Compounds with a Cisplatin sensitization value of <0.02 μM are marked with “+++.”)”; for `Nc1nn2cc(Cl)cnc2c1C(=O)Nc1cnccc1N1CCN(C2CC2)CC1` [I-N-64, 2-amino-6-chloro-N-(4-(4-cyclopropylpiperazin-1-yl)pyridin-3-yl)pyrazolo[1,5-a]pyrimidine-3-carboxamide], “+++ (Compounds with a Cisplatin sensitization value of <0.02 μM are marked with “+++.”)”.
For `Cc1cncnc1-c1ccncc1NC(=O)c1c(N)nn2cc(F)cnc12` [I-C-67, 2-amino-6-fluoro-N-(4-(5-methylpyrimidin-4-yl)pyridin-3-yl)pyrazolo[1,5-a]pyrimidine-3-carboxamide], the “Cisplatin Sensitization Assay” value was “++ (Compounds with a Cisplatin sensitization value >0.02 μM but <0.2 μM are marked with “++.”)”.
For `Nc1nn2cc(F)cnc2c1C(=O)Nc1cnccc1N1CCN(CC(F)(F)F)CC1` [I-N-20, 2-amino-6-fluoro-N-(4-(4-(2,2,2-trifluoroethyl)piperazin-1-yl)pyridin-3-yl)pyrazolo[1,5-a]pyrimidine-3-carboxamide], the “Cisplatin Sensitization Assay” value is “+++ (Compounds with a Cisplatin sensitization value of <0.02 μM are marked with “+++.”)”.
Turning to `Nc1nn2cc(F)cnc2c1C(=O)Nc1cnccc1N1CCN(C2COC2)C2CC21` (centres unmarked) [I-N-112, 2-amino-6-fluoro-N-(4-(5-(oxetan-3-yl)-2,5-diazabicyclo[4.1.0]heptan-2-yl)pyridin-3-yl)pyrazolo[1,5-a]pyrimidine-3-carboxamide], the “Cisplatin Sensitization Assay” value was “+ (Compounds with a Cisplatin sensitization value >0.2 μM but <5 μM are marked with “+.”)”.
With `N#CCc1cnc2c(C(=O)Nc3cnccc3N3CCNCC3)c(N)nn2c1` [I-N-89, 2-amino-6-(cyanomethyl)-N-(4-(piperazin-1-yl)pyridin-3-yl)pyrazolo[1,5-a]pyrimidine-3-carboxamide], the “Cisplatin Sensitization Assay” value is “++ (Compounds with a Cisplatin sensitization value >0.02 μM but <0.2 μM are marked with “++.”)”.
As for `Nc1nn2cc(F)cnc2c1C(=O)Nc1cnccc1C1CCN(C(=O)C2CC2)CC1` [I-C-70, 2-amino-N-(4-(1-(cyclopropanecarbonyl)piperidin-4-yl)pyridin-3-yl)-6-fluoropyrazolo[1,5-a]pyrimidine-3-carboxamide], the “Cisplatin Sensitization Assay” value was “+++ (Compounds with a Cisplatin sensitization value of <0.02 μM are marked with “+++.”)”.
On to `CN1CCCCC1C(=O)N1CCN(c2c(F)cncc2NC(=O)c2c(N)nn3cc(F)cnc23)CC1` (centres unmarked) [I-N-214, 2-amino-6-fluoro-N-(5-fluoro-4-(4-(1-methylpiperidine-2-carbonyl)piperazin-1-yl)pyridin-3-yl)pyrazolo[1,5-a]pyrimidine-3-carboxamide], for which the “Cisplatin Sensitization Assay” value is reported as “++ (Compounds with a Cisplatin sensitization value >0.02 μM but <0.2 μM are marked with “++.”)”.
The value for `COCC1CN(C(=O)C2CCN(c3c(F)cncc3NC(=O)c3c(N)nn4cc(F)cnc34)CC2)C1` [I-G-98, 2-amino-6-fluoro-N-(5-fluoro-4-(4-(3-(methoxymethyl)azetidine-1-carbonyl)piperidin-1-yl)pyridin-3-yl)pyrazolo[1,5-a]pyrimidine-3-carboxamide] was “+++ (Compounds with a Cisplatin sensitization value of <0.02 μM are marked with “+++.”)”; that for `CN1CC2CN(c3c(Cl)cncc3NC(=O)c3c(N)nn4cc(F)cnc34)CC2C1` (centres unmarked) [I-N-286, 2-amino-N-(5-chloro-4-(5-methylhexahydropyrrolo[3,4-c]pyrrol-2(1H)-yl)pyridin-3-yl)-6-fluoropyrazolo[1,5-a]pyrimidine-3-carboxamide] was “++ (Compounds with a Cisplatin sensitization value >0.02 μM but <0.2 μM are marked with “++.”)”.
For `CN1CCN(C(=O)c2ccc(-c3c(F)cncc3NC(=O)c3c(N)nn4cc(F)cnc34)cc2)CC1` [I-C-43, 2-amino-6-fluoro-N-(5-fluoro-4-(4-(4-methylpiperazine-1-carbonyl)phenyl)pyridin-3-yl)pyrazolo[1,5-a]pyrimidine-3-carboxamide] the value was “+++ (Compounds with a Cisplatin sensitization value of <0.02 μM are marked with “+++.”)”; for `Nc1nn2cc(F)cnc2c1C(=O)Nc1cnccc1N1CCN(C(=O)C2COC2)CC1` [I-N-249], “+++ (Compounds with a Cisplatin sensitization value of <0.02 μM are marked with “+++.”)”.
For `CN1CC(C(=O)N2CCN(c3c(F)cncc3NC(=O)c3c(N)nn4cc(F)cnc34)CC2)C1` [I-N-194] the value was “+++ (Compounds with a Cisplatin sensitization value of <0.02 μM are marked with “+++.”)”; for `Nc1nn2cc(Cl)cnc2c1C(=O)Nc1cncc(F)c1N1CCC(C(=O)N2CCN3CCC2CC3)CC1` [I-G-87, N-(4-(4-(1,4-diazabicyclo[3.2.2]nonane-4-carbonyl)piperidin-1-yl)-5-fluoropyridin-3-yl)-2-amino-6-chloropyrazolo[1,5-a]pyrimidine-3-carboxamide], “+++ (Compounds with a Cisplatin sensitization value of <0.02 μM are marked with “+++.”)”; for `CC1(O)CN(C(=O)C2CCN(c3c(F)cncc3NC(=O)c3c(N)nn4cc(F)cnc34)CC2)C1` [I-G-63, 2-amino-6-fluoro-N-(5-fluoro-4-(4-(3-hydroxy-3-methylazetidine-1-carbonyl)piperidin-1-yl)pyridin-3-yl)pyrazolo[1,5-a]pyrimidine-3-carboxamide], “+++ (Compounds with a Cisplatin sensitization value of <0.02 μM are marked with “+++.”)”.
Take `CN1CCc2c(cncc2NC(=O)c2c(N)nn3cc(F)cnc23)C1` [I-C-8, 2-amino-6-fluoro-N-(7-methyl-5,6,7,8-tetrahydro-2,7-naphthyridin-4-yl)pyrazolo[1,5-a]pyrimidine-3-carboxamide]: the “Cisplatin Sensitization Assay” value is recorded as “+ (Compounds with a Cisplatin sensitization value >0.2 μM but <5 μM are marked with “+.”)”.
The value for `Nc1nn2cc(F)cnc2c1C(=O)Nc1cncc(F)c1N1CCC(C(=O)N2CCN(C3CCC3)CC2)CC1` [I-G-35, 2-amino-N-(4-(4-(4-cyclobutylpiperazine-1-carbonyl)piperidin-1-yl)-5-fluoropyridin-3-yl)-6-fluoropyrazolo[1,5-a]pyrimidine-3-carboxamide] was “+++ (Compounds with a Cisplatin sensitization value of <0.02 μM are marked with “+++.”)”; that for `Nc1nn2cc(F)cnc2c1C(=O)Nc1cnccc1-c1ccncc1` [I-C-24, N-([4,4′-bipyridin]-3-yl)-2-amino-6-fluoropyrazolo[1,5-a]pyrimidine-3-carboxamide] was “+++ (Compounds with a Cisplatin sensitization value of <0.02 μM are marked with “+++.”)”; that for `Cn1c(-c2ccncc2NC(=O)c2c(N)nn3cc(F)cnc23)cccc1=O` [I-C-58, 2-amino-6-fluoro-N-(1-methyl-6-oxo-1,6-dihydro-[2,4′-bipyridin]-3′-yl)pyrazolo[1,5-a]pyrimidine-3-carboxamide] was “+++ (Compounds with a Cisplatin sensitization value of <0.02 μM are marked with “+++.”)”.
The value for `COc1cc(Cl)ncc1NC(=O)c1c(N)nn2cc(CC#N)cnc12` [I-O-27, 2-amino-N-(6-chloro-4-methoxypyridin-3-yl)-6-(cyanomethyl)pyrazolo[1,5-a]pyrimidine-3-carboxamide] was “++ (Compounds with a Cisplatin sensitization value >0.02 μM but <0.2 μM are marked with “++.”)”.
